Measurements: ChEMBL document CHEMBL1201862, “PubChem BioAssay data set” (2004)
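Step 1: Grow cells in 96-well plates. Step 2: Expose to compound for 48 hours at 5 concentrations. Step 3: Interpolate endpoints linearly; if unreached, use highest concentration. The concentration for 50% growth inhibition is given as GI50.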 Active and inactive are the calls of the source. Rule as the data show it: active = GI50 up to about 1.1 µM and inactive = higher.

Experiments:
Experiment in all cases: growth of human tumour cells (NCI), 48 h
[1] = test system: OVCAR-5
[2] = test system: UACC-257
[3] = test system: Hs-578T
[4] = test system: HCT-116
[5] = test system: SF-539
[6] = test system: SF-295
[7] = test system: HCC 2998
[8] = test system: SK-MEL-5
[9] = test system: CAKI-1
[10] = test system: MDA-MB-231
[11] = test system: EKVX
[12] = test system: OVCAR-3
[13] = test system: TK-10
[14] = test system: HL-60
[15] = test system: CCRF-CEM
[16] = test system: KM12
[17] = test system: IGROV-1
[18] = test system: ACHN
[19] = test system: SK-OV-3
[20] = test system: SW-620

Compound | GI50 [1] | GI50 [2] | GI50 [3] | GI50 [4] | GI50 [5] | GI50 [6] | GI50 [7] | GI50 [8] | GI50 [9] | GI50 [10] | GI50 [11] | GI50 [12] | GI50 [13] | GI50 [14] | GI50 [15] | GI50 [16] | GI50 [17] | GI50 [18] | GI50 [19] | GI50 [20]
CCN(CCO)CC1COc2ccccc2O1 (stereo not drawn) | > 100 µM (inactive) | > 100 µM (inactive) | > 100 µM (inactive) | > 100 µM (inactive) | > 100 µM (inactive) | > 100 µM (inactive) | > 100 µM (inactive) | > 100 µM (inactive) | > 100 µM (inactive) | > 100 µM (inactive) | > 100 µM (inactive) | > 100 µM (inactive) | > 100 µM (inactive) | > 100 µM (inactive) | > 100 µM (inactive) | > 100 µM (inactive) | > 100 µM (inactive) | > 100 µM (inactive) | > 100 µM (inactive) | 
Cc1ccc(C[N+](C)(C)N)cc1C | > 10 µM (inactive) | > 10 µM (inactive) | > 10 µM (inactive) | > 10 µM (inactive) | > 10 µM (inactive) | > 10 µM (inactive) | > 10 µM (inactive) | > 10 µM (inactive) | > 10 µM (inactive) | > 10 µM (inactive) | > 10 µM (inactive) | > 10 µM (inactive) | > 10 µM (inactive) | > 10 µM (inactive) | > 10 µM (inactive) | > 10 µM (inactive) | > 10 µM (inactive) | > 10 µM (inactive) | > 10 µM (inactive) | > 10 µM (inactive)
COc1cc(C2C3=C(COC3=O)Oc3cc4c(cc32)OCO4)ccc1O (stereo not drawn) | 3.78 µM (inactive) |  | 0.329 µM (active) | 0.448 µM (active) | 0.281 µM (active) | 0.127 µM (active) | 0.893 µM (active) | 0.0728 µM (active) | 0.0445 µM (active) | 0.818 µM (active) | 1.05 µM (active) | 0.189 µM (active) | > 100 µM (inactive) | 0.182 µM (active) | 0.352 µM (active) | 0.262 µM (active) | 0.509 µM (active) | 0.653 µM (active) | 0.302 µM (active) | 0.329 µM (active)
Cc1ccc(N(C)S(=O)(=O)c2ccccc2)cc1 | > 100 µM (inactive) | > 100 µM (inactive) | > 100 µM (inactive) | 86.5 µM (inactive) | > 100 µM (inactive) | > 100 µM (inactive) | > 100 µM (inactive) | 67.5 µM (inactive) | > 100 µM (inactive) | 88.3 µM (inactive) | 97.9 µM (inactive) | > 100 µM (inactive) | > 100 µM (inactive) | > 10 µM (inactive) | > 100 µM (inactive) | > 100 µM (inactive) | > 100 µM (inactive) | > 100 µM (inactive) | > 100 µM (inactive) | > 100 µM (inactive)
Cc1nc(C(N)=S)sc1C(=O)C/C(=N/N)C(=O)Nc1cccc(Cl)c1C | > 100 µM (inactive) | > 100 µM (inactive) | > 100 µM (inactive) | > 100 µM (inactive) | > 100 µM (inactive) | > 100 µM (inactive) | > 100 µM (inactive) | > 100 µM (inactive) | > 100 µM (inactive) | > 100 µM (inactive) | > 100 µM (inactive) | > 100 µM (inactive) | > 100 µM (inactive) | > 100 µM (inactive) | > 100 µM (inactive) | > 100 µM (inactive) | > 100 µM (inactive) | > 100 µM (inactive) | > 100 µM (inactive) | > 100 µM (inactive)
